Entries after “also recorded” stand apart in the source; their conditions may differ. No end group written: not given here.

Assay [1] has as its system human pancreatic islets. Kind of assay: Insulin secretion in human pancreatic islets. Type of assay: cell-based. The settings on record: peptide 100 nM, glucose absent or 2 to 25 mM. The method, then: The effects of UAG (1-14) and UAG (1-18), both used at 100 nM, were investigated on insulin secretion in human islets. […] UAG (1-28) and Exendin-4 were used as positive controls (FIGS. 8C and 8D).

The next assay deals with hamster HIT-T15 β-cells. In words: MTT cell survival assay in HIT-T15 β-cells. Format: cell-based. The following applies: for increase of cell survival: serum-free conditions. How it is done: MTT experiments were also performed in hamster HIT-T15 β-cells, to test the survival effect of UAG (1-28) or its fragments UAG (1-14), UAG (1-18), UAG (1-5) and UAG (17-28) in serum deprived medium, either alone or with IFN-γ/TNF-α/IL-1β. As for the experiments performed on INS-1E β-cells, the peptides were tested at increasing concentrations, ranging from 0.1 nM to 100 nM.
The survival effect of UAG (6-13), UAG (8-13), UAG (8-12), UAG (8-11), UAG (9-12) and UAG (9-11) was assessed in cytokine-treated HIT-T15 β-cells.
The protective effects of peptides UAG (8-13) and UAG (8-12) were found similar to those of UAG (1-14) and UAG (1-18). A peptide made of the inverse sequence of UAG (1-14) and named UAG (14-1), was used as negative control for these experiments (FIG. 5A). […] These effects were however lower than those of UAG (6-13) (FIG. 5B).
UAG fragments with alanine (Ala) substitutions at different amino acid positions (6 to 13) were tested with regards to their survival effects in HIT-T15 hamster β-cells. The cells were cultured in serum deprived medium, either alone or with IFN-γ/TNF-α/IL-1β. The peptides were tested at the concentrations of 1 nM to 100 nM. […] Under treatment with cytokines, where cell survival was reduced by ≈18% with respect to serum starved conditions, all Ala substitutions, except those at positions 10 and 11, completely reversed cell death and brought the survival rate to levels that were even higher than those under serum-free conditions, at both 1 nM and 100 nM concentrations. These effects were similar to those elicited by the original peptide UAG (6-13) (FIG. 11B).
Particularly, the best effect was exerted by Gly 6-UAG (6-13), whereas the lowest was seen using AcSer 6-UAG (6-13), AcSer 6-(D)Pro 7-UAG (6-13) (FIG. 12B).
(§1) Hamster HIT-T15 insulin-secreting β-cells were obtained and cultured as described (Refs. 14, 4). INS-1E rat β-cells were kindly provided by Prof. Claes B. Wollheim (University Medical Center, Geneva, Switzerland) and cultured as described (Refs. 14, 4). Cell culture reagents were from Invitrogen (Milano, Italy). Cytokines were from Biosource (Invitrogen, Italy).
(§2) Cell survival was assessed by 3-[4,5-dimethylthiazol-2-yl]-2,5diphenyltetrazolium bromide (MTT) as described previously (Ref. 4). Cells were seeded on 96-well plates at a density of 5×10^3 cells/well. After treatments, cells were incubated with 1 mg/ml MTT for ≈1 h. The medium was aspirated, and the formazan product solubilized with 100 μl DMSO. Viability was assessed by spectrophotometry at 570 nm absorbance using a 96-well plate reader.

A further assay concerns INS-1E rat β-cells. Kind of assay: MTT cell survival assay in INS-1E β-cells. Format: cell-based. The settings on record: 0.1 nM to 100 nM. The method, then: The peptides were tested at increasing concentrations, ranging from 0.1 nM to 100 nM.
as §1, §2

For assay [2], the system named is human pancreatic islets. Kind of assay: MTT cell survival assay in human pancreatic islets. The settings on record: human islet cells, 1 nM to 100 nM. Format: cell-based. How it is done: The survival effect of UAG (1-14), UAG (1-18), UAG (1-5) and UAG (17-28), with respect to that of full length UAG (1-28), was assessed in human pancreatic islets by MTT. The peptides were tested in islet cells cultured in serum deprived medium, either alone or with IFN-γ/TNF-α/IL-1β (5 ng/ml each).
Human islets were obtained from pancreases of multiorgan donors as described (Ref. 4). Islet preparations with purity >70%, not suitable for transplantation, were provided by European Consortium for Islet Transplantation (ECIT) “Islets for Research Distribution Program,” Transplant Unit, Scientific Institute San Raffaele, Vita-Salute University, Milan. Islets (10,000) were cultured in CMRL (Invitrogen) with 10% FBS.
as §2
On the technique in general: Tetrazolium assays rely on reduction of a dye to a coloured formazan, in cell work by metabolically active cells.

In assay [3] the test system is UAG receptor on HIT-T15 pancreatic β-cells. Kind of assay: Competition with [125I-Tyr4]-UAG for binding sites on HIT-T15 membranes. More on the design: species or system hamster. The method, then:
(§3) The ability of the fragment UAG (6-13) to compete in a concentration-dependent manner with [^125I-Tyr^4]-UAG for HIT-T15 (FIG. 10A) and INS-1E (FIG. 10B) binding sites was assayed. As shown in FIGS. 10A and 10B, unlabelled UAG (1-28) and UAG (6-13) competed with a similar efficacy and in a concentration-dependent fashion with [^125I-Tyr^4]-UAG for such binding sites in both cell lines.
(§4) Membranes from hamster HIT-T15 and rat INS-1E pancreatic β-cells were prepared and assayed for the presence of [^125I-Tyr^4]-UAG binding. The ability of UAG fragments to compete with the radioligand for such binding sites has been evaluated as previously described (Ref. 4). Data are presented as mean±S.E.M. of three independent experiments.

Assay [4] deals with HIT-T15 β-cells. Kind of assay: Glucose-induced insulin secretion in HIT-T15 β-cells. Format: cell-based, hamster. The settings on record: data not shown. The method, then: HIT-T15 cells were plated at density of 5×10^5 cells into 100-mm dishes and serum starved for 24 h before incubation for 1 h at 37° C. in HEPES-buffered Krebs-Ringer bicarbonate buffer (KRBH), containing 0.5% BSA with 1.25 mM glucose. The medium was changed and the cells were incubated again for 1 h in KRBH/0.5% BSA containing 1.25, 7.5 or 15 mM glucose. Following acid ethanol extraction of the hormone, secreted insulin was quantitated by a radioimmunoassay kit (Linco Research, Labodia, Yens, Switzerland) which recognizes human insulin and cross reacts with rat insulin.

Assay [5] concerns UAG receptor on INS-1E pancreatic β-cells. Kind of assay: Competition with [125I-Tyr4]-UAG for binding sites on INS-1E membranes. Also noted: species or system rat. The method, then: as §3, §4
For the next assay, the system named is ob/ob mice. In words: ob/ob mice, 4 weeks infusion by Alzet pump. Format: in vivo, mouse. The method, then: Baseline tail vein plasma samples were collected from free-fed and 16 h fasted ob/ob mice 7 and 6 days before pump implantation into K2EDTA coated capillary tubes (Microvette CB300 K2E; Sarstedt, Germany). The animals were then separated into three groups with approximately equivalent weight ranges. Ten week old mice were anesthetized, and a filled Alzet 1004 pump was inserted, delivery portal first, into the peritoneal cavity. The musculoperitoneal and skin layers were then closed using interrupted sutures (Vicryl 5.0 FS-2 absorbable suture). Animals received pumps containing either saline, 10 mg/ml UAG, or 3.5 mg/mL UAG (6-13) (n=8 per group). Alzet 1004 pumps deliver […], and infused 30 μg of hUAG/animal/day (˜600 μg/kg/day) and 10 μg of UAG (6-13)/animal/day (˜200 μg/kg/day).
Blood samples (at 0900-1000) were obtained from fed and fasted animals at weeks 2 and 4 via the tail vein into EDTA Microvette tubes. Glucose levels in tail vein blood were measured directly using a glucometer. On the last day of treatment baseline (fasted) blood samples were taken.
For the experimental data illustrated in FIGS. 14A, 14B, 15 and 16, the animals were obtained from Charles River Laboratories (Maastricht, The Netherlands). Animals (B6.V-Lep^ob/J, Charles River Laboratories, Belgian colony) were received in our animal facilities at 8 weeks of age, and acclimatized in individual cages for 2 weeks before treatments began. They were maintained under standard 12:12 h light:dark conditions, 21° C., and were allowed free access to food and water. The animals were also handled daily to accustom them to the method used for blood collection. The peptides were dissolved in sterile, nonpyrogenic, 0.9% saline (Baxter BV, Utrecht, The Netherlands). D-glucose was obtained from Sigma-Aldrich Chemie BV (Zwijndrecht, The Netherlands), and was dissolved at 400 mg/ml in 0.9% saline. Alzet pumps (model 1004) were obtained from Charles River Laboratories (Maastricht, The Netherlands). Pumps were filled with 0.9% saline, UAG or UAG (6-13) solution under sterile conditions, and pre-incubated in 0.9% saline for at least 48 hours at 37° C. to initiate flow. Blood glucose levels were measured directly from tail vein incisions using a Freestyle mini glucometer and test strips (ART05214 Rev.A; Abbot, Amersfoort, The Netherlands). Plasma insulin levels were assayed by Ultra-sensitive mouse insulin ELISA (Cat. #10-1150-10; Mercodia, Sweden).

Assay [6] concerns HIT-T15 β-cells. Kind of assay: Cytokine-induced apoptosis in HIT-T15 β-cells. Format: cell-based, hamster. How it is done: HIT-T15 β-cells were cultured for 24 h in serum-free medium, either alone or with IFN-γ/TNF-α/IL-1β. In both cell lines, apoptosis increased under cytokine treatment, with respect to serum starvation alone. […] UAG (14-1), the inverse sequence of UAG (1-14), was used as negative control, whereas UAG (1-28), was used as positive control in each experiment.

For assay [7], the system named is STZ-induced diabetic rats. In words: Streptozotocin (STZ)-treated neonatal rats. The settings on record: for animal survival rate: day 9 after STZ.
Experimental: Pregnant female Sprague-Dawley rats (n=10, day 14th-15th of pregnancy) were purchased from Harlan Srl (Italy), caged allowing free access to water and fed with a standard pellet rat diet. Natural birth occurred 6-7 days later. […] Dams were randomly assigned to the five groups and pups from the same litter were assigned to the same group. […] Pups were left with their mothers. All neonates were tested on day 2 for glycosuria using Accu-chek compact plus (Roche). Only those animals that were glycosuric at day 2 after birth were included in the STZ model group. […] Animals were killed at day 70 after birth by decapitation. Blood samples were collected after decapitation and immediately centrifuged at 20,000×g for 2 min at 4° C., and stored at −20° C. until assayed.
After excision, pancreases were removed and weighed. For insulin content determination, pancreases (35-50 mg) were homogenized and centrifuged in 5 ml acid-ethanol (0.15 mol/l HCl in 75% [vol/vol]ethanol) at 1,000 g for 20 min; the supernatants were stored at −80° C. For immunohistochemistry, additional pancreases were fixed in 4% paraformaldehyde fixative for 24 h and embedded in paraffin.
Plasma glucose levels were determined using a glucose analyzer. Insulin was measured from pancreases or from plasma by RIA as previously described (Ref. 15).
Where [8] appears, read: serum deprived medium with IFN-γ/TNF-α/IL-1β.

In the case of exendin-4 [reference compound], in the assay on human pancreatic islets [1], the insulin secretion result was “significantly increased insulin secretion both in the absence and presence of glucose”.
For the substance GSSFLSPEHQRVQQRKES [UAG (1-18)], the “cell survival (MTT)” value in the assay with hamster HIT-T15 β-cells (serum deprived medium alone) is “significantly increased cell viability; also recorded: potently increased cell survival”; in the assay on hamster HIT-T15 β-cells (setting [8]), “significantly increased cell viability; also recorded: potently increased cell survival”; in the assay on INS-1E rat β-cells (serum deprived medium alone), “potently increased cell survival”; in the assay with INS-1E rat β-cells (setting [8]), “potently increased cell survival”; in the assay on human pancreatic islets [2] (serum deprived medium alone) it was “significantly increased cell survival at 1 nM and 10 nM”. Moreover, the insulin secretion result in the assay with human pancreatic islets [1] is on record as “significant effect with 7.5 mM glucose”.
GSSFLSPEHQRVQQ [UAG (1-14)]: the “cell survival (MTT)” value in the assay on hamster HIT-T15 β-cells (serum deprived medium alone) is given as “significantly increased cell viability; also recorded: potently increased cell survival”; in the assay on hamster HIT-T15 β-cells (setting [8]), “significantly increased cell viability; also recorded: potently increased cell survival”; in the assay on INS-1E rat β-cells (serum deprived medium alone), “potently increased cell survival”; in the assay on INS-1E rat β-cells (setting [8]) it was “potently increased cell survival”; in the assay with human pancreatic islets [2] (serum deprived medium with IFN-γ/TNF-α/IL-1β (5 ng/ml each)), “prevented cell death at 100 nM”. The “binding to the UAG receptor” value in assay [3] was “recognized and bound”; in [5] it was “recognized and bound”. Also, the glucose-induced insulin secretion result in the assay on HIT-T15 β-cells [4] is on record as “significantly increased glucose-induced insulin secretion”. The insulin secretion entry in the assay on human pancreatic islets [1] is “significantly increased insulin secretion both in the absence and presence of glucose”.
With “SPEHQRVQ [UAG (6-13), Ser-Pro-Glu-His-Gln-Arg-Val-Gln]”, the “cell survival (MTT)” value in the assay with hamster HIT-T15 β-cells (setting [8]) was “potently inhibited cytokine-induced cell death; also recorded: strongly effective in increasing survival”. Besides, the “increase of cell survival” value with hamster HIT-T15 β-cells (1 nM) is on record as “≈ 18%”; with hamster HIT-T15 β-cells (100 nM), “≈ 30%”. The “gonadal fat weight over the period of treatment” value with ob/ob mice (mouse, in vivo) is “did not cause an increase in gonadal fat weight”. For the same substance, the “decrease of gonadal fat pad weight relative to saline treated controls” value with ob/ob mice (period of treatment (4 weeks), trend p<0.06) is reported as “approximately 7%”. Moreover, the “suppression of fasting glucose concentrations from saline treated controls” value in the assay with ob/ob mice (week 4) is “This effect remained at week 4”. Also, the “fed plasma glucose levels relative to saline controls” value in the assay with ob/ob mice (weeks 2 and 4, no statistically significant effects (RM-ANOVA)) is recorded as “consistent suppressive effect”. The “binding to the UAG receptor” value in [3] and in assay [5] was “highest binding activity” in each case. Moreover, the “antiapoptotic effect (cytokine-induced apoptosis)” value with HIT-T15 β-cells [6] (24 h serum-free medium with IFN-γ/TNF-α/IL-1β, 1, 10, 100 nM) is “significantly reduced cytokine-induced apoptosis; also recorded: strongest antiapoptotic effect”. For the same substance, in the assay with HIT-T15 β-cells [6] (cytokine-treated, data not shown), the “cell number and morphology with respect to cytokine condition” value was “increased the number of cells, induced cell enlargement and small islets formation”. Also, the animal survival rate entry is on record as “≈ 71%” in assay [7] (30 nmol/l (STZ alone ≈52%)) and 89% in assay [7] (100 nmol/l (STZ alone ≈52%)). Further, the “reduction of plasma glucose vs. STZ group” value in [7] (day 70, 30 nmol/l) was 31%; in assay [7] (day 70, 100 nmol/l), 14%. Also, in assay [7] (day 70, STZ-treated rats, UAG (6-13) at both concentrations), the plasma insulin levels entry is reported as “increasing insulin levels”.

Values taken from patent publication US8318664B2, “Unacylated ghrelin fragments as therapeutic agent in the treatment of obesity” (Alize Pharma SAS, priority 2007, dated 2012).
